Reference: PubChem BioAssay (NCI)
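Five compound concentrations were applied to cells in 96-well plates for 48 hours; endpoints were derived by simple linear interpolation of the resulting dose-response curve. TGI is the concentration that stops growth completely.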

Tests used:
Test in all cases: NCI anticancer screen, dose series, 48 h
SF-268 CNS = test system: SF-268 CNS
OVCAR-8 ovarian = test system: OVCAR-8 ovarian
NCI-H23 lung = test system: NCI-H23 lung
SR leukemia = test system: SR leukemia
K-562 leukemia = test system: K-562 leukemia
HOP-62 NSCLC = test system: HOP-62 NSCLC
SNB-19 CNS = test system: SNB-19 CNS
SNB-75 CNS = test system: SNB-75 CNS
BT-549 breast = test system: BT-549 breast
786-0 renal = test system: 786-0 renal
HOP-92 NSCLC = test system: HOP-92 NSCLC
MCF7 breast = test system: MCF7 breast
TK-10 renal = test system: TK-10 renal
DU-145 prostate = test system: DU-145 prostate
MDA-N = test system: MDA-N
A549 NSCLC = test system: A549 NSCLC
SK-MEL-28 melanoma = test system: SK-MEL-28 melanoma
SF-295 CNS = test system: SF-295 CNS
LOX IMVI melanoma = test system: LOX IMVI melanoma
NCI-H460 lung = test system: NCI-H460 lung
HCT-116 colon = test system: HCT-116 colon
SW-620 colon = test system: SW-620 colon
HT29 colon = test system: HT29 colon
PC-3 prostate = test system: PC-3 prostate
RXF 393 renal = test system: RXF 393 renal
M14 melanoma = test system: M14 melanoma
UO-31 renal = test system: UO-31 renal
A498 renal = test system: A498 renal
SK-MEL-5 melanoma = test system: SK-MEL-5 melanoma
UACC-257 melanoma = test system: UACC-257 melanoma
CCRF-CEM leukemia = test system: CCRF-CEM leukemia
MDA-MB-231 breast = test system: MDA-MB-231 breast
OVCAR-5 ovarian = test system: OVCAR-5 ovarian
OVCAR-3 ovarian = test system: OVCAR-3 ovarian
NCI/ADR-RES ovarian = test system: NCI/ADR-RES ovarian
T-47D breast = test system: T-47D breast
IGROV1 ovarian = test system: IGROV1 ovarian
COLO 205 colon = test system: COLO 205 colon
UACC-62 melanoma = test system: UACC-62 melanoma
HS 578T breast = test system: HS 578T breast
KM12 colon = test system: KM12 colon
SF-539 CNS = test system: SF-539 CNS
MOLT-4 leukemia = test system: MOLT-4 leukemia
HCC-2998 colon = test system: HCC-2998 colon
CAKI-1 renal = test system: CAKI-1 renal
HL-60(TB) leukemia = test system: HL-60(TB) leukemia
MALME-3M melanoma = test system: MALME-3M melanoma
MDA-MB-435 = test system: MDA-MB-435
EKVX NSCLC = test system: EKVX NSCLC
SK-OV-3 ovarian = test system: SK-OV-3 ovarian
NCI-H522 lung = test system: NCI-H522 lung
HCT-15 colon = test system: HCT-15 colon
RPMI-8226 leukemia = test system: RPMI-8226 leukemia
ACHN renal = test system: ACHN renal
SN12C renal = test system: SN12C renal
OVCAR-4 ovarian = test system: OVCAR-4 ovarian
NCI-H226 lung = test system: NCI-H226 lung
SK-MEL-2 melanoma = test system: SK-MEL-2 melanoma
U251 CNS = test system: U251 CNS

Compound: CCOC(=O)c1nc2cc(C(F)(F)F)ccc2nc1Nc1ccc(OC)c(OC)c1
- TGI (SF-268 CNS): > 100 µM
- TGI (OVCAR-8 ovarian): > 100 µM
- TGI (NCI-H23 lung): > 100 µM
- TGI (SR leukemia): > 100 µM
- TGI (K-562 leukemia): > 100 µM
- TGI (HOP-62 NSCLC): > 100 µM
- TGI (SNB-19 CNS): > 100 µM
- TGI (SNB-75 CNS): > 100 µM
- TGI (BT-549 breast): > 100 µM
- TGI (786-0 renal): > 100 µM
- TGI (HOP-92 NSCLC): > 100 µM
- TGI (MCF7 breast): > 100 µM
- TGI (TK-10 renal): > 100 µM
- TGI (DU-145 prostate): > 100 µM
- TGI (MDA-N): > 100 µM
- TGI (A549 NSCLC): > 100 µM
- TGI (SK-MEL-28 melanoma): > 100 µM
- TGI (SF-295 CNS): > 100 µM
- TGI (LOX IMVI melanoma): > 100 µM
- TGI (NCI-H460 lung): > 100 µM
- TGI (HCT-116 colon): > 100 µM
- TGI (SW-620 colon): > 100 µM
- TGI (HT29 colon): > 100 µM
- TGI (PC-3 prostate): > 100 µM
- TGI (RXF 393 renal): > 100 µM
- TGI (M14 melanoma): > 100 µM
- TGI (UO-31 renal): > 100 µM
- TGI (A498 renal): > 100 µM
- TGI (SK-MEL-5 melanoma): > 100 µM
- TGI (UACC-257 melanoma): > 100 µM
- TGI (CCRF-CEM leukemia): > 100 µM
- TGI (MDA-MB-231 breast): > 100 µM
- TGI (OVCAR-5 ovarian): > 100 µM
- TGI (OVCAR-3 ovarian): > 100 µM
- TGI (NCI/ADR-RES ovarian): > 100 µM
- TGI (T-47D breast): > 100 µM
- TGI (IGROV1 ovarian): > 100 µM
- TGI (COLO 205 colon): > 100 µM
- TGI (UACC-62 melanoma): > 100 µM
- TGI (HS 578T breast): > 100 µM
- TGI (KM12 colon): > 100 µM
- TGI (SF-539 CNS): > 100 µM
- TGI (MOLT-4 leukemia): > 100 µM
- TGI (HCC-2998 colon): > 100 µM
- TGI (CAKI-1 renal): > 100 µM
- TGI (HL-60(TB) leukemia): > 100 µM
- TGI (MALME-3M melanoma): > 100 µM
- TGI (MDA-MB-435): > 100 µM
- TGI (EKVX NSCLC): > 100 µM
- TGI (SK-OV-3 ovarian): > 100 µM
- TGI (NCI-H522 lung): > 100 µM
- TGI (HCT-15 colon): > 100 µM
- TGI (RPMI-8226 leukemia): > 100 µM
- TGI (ACHN renal): > 100 µM
- TGI (SN12C renal): > 100 µM

Compound: N#CC(NCCc1ccccc1)c1ccccc1 (centres undefined)
- TGI (SF-268 CNS): > 100 µM
- TGI (OVCAR-8 ovarian): > 100 µM
- TGI (NCI-H23 lung): > 100 µM
- TGI (SR leukemia): > 100 µM
- TGI (HOP-62 NSCLC): > 100 µM
- TGI (SNB-19 CNS): > 100 µM
- TGI (SNB-75 CNS): > 100 µM
- TGI (BT-549 breast): > 100 µM
- TGI (786-0 renal): > 100 µM
- TGI (HOP-92 NSCLC): > 100 µM
- TGI (MCF7 breast): > 100 µM
- TGI (TK-10 renal): > 100 µM
- TGI (DU-145 prostate): > 100 µM
- TGI (MDA-N): > 100 µM
- TGI (A549 NSCLC): > 100 µM
- TGI (SK-MEL-28 melanoma): > 100 µM
- TGI (SF-295 CNS): > 100 µM
- TGI (OVCAR-4 ovarian): > 100 µM
- TGI (LOX IMVI melanoma): > 100 µM
- TGI (NCI-H460 lung): > 100 µM
- TGI (HCT-116 colon): > 100 µM
- TGI (SW-620 colon): > 100 µM
- TGI (NCI-H226 lung): > 100 µM
- TGI (HT29 colon): > 100 µM
- TGI (PC-3 prostate): > 100 µM
- TGI (SK-MEL-2 melanoma): > 100 µM
- TGI (RXF 393 renal): > 100 µM
- TGI (M14 melanoma): > 100 µM
- TGI (UO-31 renal): > 100 µM
- TGI (SK-MEL-5 melanoma): > 100 µM
- TGI (UACC-257 melanoma): > 100 µM
- TGI (CCRF-CEM leukemia): > 100 µM
- TGI (MDA-MB-231 breast): > 100 µM
- TGI (OVCAR-5 ovarian): > 100 µM
- TGI (OVCAR-3 ovarian): > 100 µM
- TGI (NCI/ADR-RES ovarian): > 100 µM
- TGI (T-47D breast): > 100 µM
- TGI (IGROV1 ovarian): > 100 µM
- TGI (COLO 205 colon): > 100 µM
- TGI (UACC-62 melanoma): > 100 µM
- TGI (HS 578T breast): > 100 µM
- TGI (KM12 colon): > 100 µM
- TGI (SF-539 CNS): > 100 µM
- TGI (MOLT-4 leukemia): > 100 µM
- TGI (HCC-2998 colon): > 100 µM
- TGI (CAKI-1 renal): > 100 µM
- TGI (HL-60(TB) leukemia): > 100 µM
- TGI (MALME-3M melanoma): > 100 µM
- TGI (U251 CNS): > 100 µM
- TGI (MDA-MB-435): > 100 µM
- TGI (EKVX NSCLC): > 100 µM
- TGI (SK-OV-3 ovarian): > 100 µM
- TGI (NCI-H522 lung): > 100 µM
- TGI (HCT-15 colon): > 100 µM
- TGI (RPMI-8226 leukemia): > 100 µM
- TGI (ACHN renal): > 100 µM
- TGI (SN12C renal): > 100 µM

Compound: Cc1nnc(N)nc1/C=C\c1ccc(N(C)C)cc1
- TGI (SF-268 CNS): > 100 µM
- TGI (OVCAR-8 ovarian): > 100 µM
- TGI (NCI-H23 lung): > 100 µM
- TGI (SR leukemia): > 100 µM
- TGI (K-562 leukemia): > 100 µM
- TGI (HOP-62 NSCLC): > 100 µM
- TGI (SNB-19 CNS): > 100 µM
- TGI (SNB-75 CNS): > 100 µM
- TGI (BT-549 breast): > 100 µM
- TGI (786-0 renal): > 100 µM
- TGI (HOP-92 NSCLC): > 100 µM
- TGI (MCF7 breast): > 100 µM
- TGI (TK-10 renal): > 100 µM
- TGI (DU-145 prostate): > 100 µM
- TGI (MDA-N): > 100 µM
- TGI (A549 NSCLC): > 100 µM
- TGI (SK-MEL-28 melanoma): > 100 µM
- TGI (SF-295 CNS): > 100 µM
- TGI (OVCAR-4 ovarian): > 100 µM
- TGI (LOX IMVI melanoma): 20.1 µM
- TGI (NCI-H460 lung): > 100 µM
- TGI (HCT-116 colon): > 100 µM
- TGI (SW-620 colon): > 100 µM
- TGI (NCI-H226 lung): > 100 µM
- TGI (HT29 colon): > 100 µM
- TGI (PC-3 prostate): > 100 µM
- TGI (SK-MEL-2 melanoma): > 100 µM
- TGI (RXF 393 renal): > 100 µM
- TGI (M14 melanoma): > 100 µM
- TGI (UO-31 renal): > 100 µM
- TGI (A498 renal): > 100 µM
- TGI (SK-MEL-5 melanoma): > 100 µM
- TGI (UACC-257 melanoma): > 100 µM
- TGI (CCRF-CEM leukemia): > 100 µM
- TGI (MDA-MB-231 breast): > 100 µM
- TGI (OVCAR-5 ovarian): > 100 µM
- TGI (NCI/ADR-RES ovarian): > 100 µM
- TGI (T-47D breast): > 100 µM
- TGI (IGROV1 ovarian): > 100 µM
- TGI (COLO 205 colon): > 100 µM
- TGI (UACC-62 melanoma): > 66.9 µM
- TGI (HS 578T breast): > 100 µM
- TGI (KM12 colon): > 100 µM
- TGI (MOLT-4 leukemia): > 100 µM
- TGI (HCC-2998 colon): 23.8 µM
- TGI (CAKI-1 renal): > 63.3 µM
- TGI (HL-60(TB) leukemia): 8.91 µM
- TGI (MALME-3M melanoma): > 100 µM
- TGI (U251 CNS): > 100 µM
- TGI (MDA-MB-435): > 100 µM
- TGI (EKVX NSCLC): > 100 µM
- TGI (SK-OV-3 ovarian): > 100 µM
- TGI (NCI-H522 lung): 17.1 µM
- TGI (HCT-15 colon): > 59.2 µM
- TGI (RPMI-8226 leukemia): > 100 µM
- TGI (ACHN renal): > 100 µM
- TGI (SN12C renal): > 100 µM
